Data taken from patent publication US8877932B2, “Anhydrous lenalidomide form-I” (Natco Pharma Limited, priority 2010, dated 2014).
≈ marks a conversion by molar mass, not a printed value. Where two headings read alike, the source gives them in different places. One block for each molecule: values may come before it.

Experiments:
[1] = Bulk density; assay type: physicochemical
Text: Batch No—0812/006 • Untapped Density—0.286 g/ml • Tapped density—0.481 g/ml • III. Batch No—0812/006 • Untapped Density—0.286 g/ml • Tapped density—0.481 g/ml

[2] = Encapsulated Form I compared with […] capsules (XRPD, moisture content); assay type: physicochemical
Text: The sample of lenalidomide Form I API is encapsulated & compared with the […] capsules.

[3] = Intrinsic dissolution (Woods apparatus); assay type: physicochemical; settings: HCl buffer, pH 1.8, 1% sodium lauryl sulfate, 37° C., 50 rpm
Description: Dissolution experiments were carried out in a ELECTROLAB-8 dissolution apparatus equipped with a ETC-112 temperature controller. An intrinsic dissolution apparatus (Woods apparatus) was used. Samples were compressed at 2.0 metric tons for 1 min in KBr hydraulic press, giving a sample surface of 0.50 cm^2. A dissolution medium consisting of 900 mL HCl buffer, pH 1.8, with 1% sodium lauryl sulfate, was used for each experiment. The medium was degassed by vacuum filtration through a 0.45-μm nylon filter disk and maintained at 37° C. The apparatus was rotated at 50 rpm for each experiment. Aliquots were filtered immediately using 0.45-μm nylon syringe filters. In some cases, the undissolved solids were recovered and analyzed by X-ray powder diffraction (XRPD).
(§1) Both the solubility and dissolution experiments were conducted in a medium of HCl buffer, pH 1.8, containing 1% sodium lauryl sulfate. The solubilities were estimated to be 3.15 mg/ml for Form 1 & 3.28 mg/ml for Form B, respectively.

[4] = Moisture content of prepared Form-I samples; assay type: physicochemical; settings: samples as prepared
[5] = Thermal stability of Lenalidomide Form I; assay type: physicochemical; settings: heating at 95 to 105° C. for 7 days
Description: The lenalidomide Form I obtained after drying temperature 65 to 75° C. under vacuum is taken subjected to heating at 95 to 105° C. in oil bath, kept in rotator vapor for 7 days, cool to room temperature and the sample is analyzed per IR, NMR, XRPD (X-ray powder diffractometry), DSC (differential scanning calorimetry) & TGA (thermogravimetry). […] The moisture content is also determined for sample and found to be less than 1%.

[6] = Accelerated stability studies; assay type: physicochemical
Description: The lenalidomide Form I sample are subjected to accelerated stability studies under following conditions & analyzed at initial after 1, 2, 3 and 6 months. • Condition 1—temperature: 40° C.±2° C. • Relative humidity: 75% RH±5% • Condition 1—temperature: 30° C.±2° C. • Relative humidity: 65% RH±5%
We have not observed major deviation in quality of samples analysed of initial samples after 1,2, 3 and 6 months.
No increase in impurity profile is observed in 1,2, 3 and 6 months sample.

[7] = Equilibrium solubility; assay type: physicochemical; settings: pH 1.8, 1% sodium lauryl sulfate
Description: A solid sample of 450 mg was stirred in 50 mL of dissolution medium (HCl buffer, pH 1.8, with 1% sodium lauryl sulfate) using a mechanical stir rod. Aliquots were filtered and centrifuged at 3500 rpm using 0.2-μm nylon syringe filters and immediately diluted 1 mL→50 mL, then 5 mL→425 mL with dissolution medium. In some cases, the undissolved solids were recovered and sent for X-ray powder diffraction (XPRD) studies.
as §1

[8] = Humidity test; assay type: physicochemical
Description: The anhydrous form of lenalidomide along with two batches (0812/006 & 0812/007 &) were subjected for humidity test.
NaBr, NH4Cl, KOH, Na2HPO4 were used as Saturated solution at temperature 25.1° C., 25° C., 24.7° C., 26.8° C. and humidity 84%, 79%, 23%, 93% respectively at initial water content of 0.08%.

[9] = Storage stability at room temperature; assay type: physicochemical; settings: more than a year at room temperature (25-35° C.)
Description: The thus obtained anhydrous novel form is very stable at room temperature (25-35° C.) and is not absorbing water or converting to any reported hydrated forms.

[10] = reported in US 2005/0096351 A1; cited from earlier work
[11] = 40° C./75% RH and 30° C./65% RH, 1, 2, 3 and 6 months

- Tapped density ([1]; listed as 0812/005): 0.465 g/mL
- Untapped Density ([1]; listed as 0812/005): 0.278 g/mL
- Tapped density ([1]; listed as 0812/006): 0.481 g/mL
- Untapped Density ([1]; listed as 0812/006): 0.286 g/mL
- polymorphic form after encapsulation (XRPD) [2]: not changed even after encapsulation
- dissolution rate [3]: 0.421 mg/min/cm^2
- moisture content [4]: less than 0.1%
- change in impurity profile [5]: No further change
- change in spectral data (IR, NMR, XRPD, DSC, TGA) [5]: No change is observed
- moisture content after heating [5]: less than 1%
- impurity profile [6, 11]: No increase
- moisture content after accelerated stability storage [6, 11]: 0.21 % w/w
- moisture content, initial ([6]; before accelerated stability storage): 0.09 % w/w
- solubility ([7]; HCl buffer with 1% sodium lauryl sulfate, 25 °C, pH 1.8, aqueous with cosolvent or surfactant or cyclodextrin, thermodynamic from solid, read-out: solubility): 3150 µg/mL (≈ 12.1 mM)
- water content after humidity test ([8]; KOH saturated solution, 24.7° C., humidity 23%): 0.12 % w/w
- water content after humidity test ([8]; NH4Cl saturated solution, 25° C., humidity 79%): 0.13 % w/w
- water content after humidity test ([8]; Na2HPO4 saturated solution, 26.8° C., humidity 93%): 0.10 % w/w
- water content after humidity test ([8]; NaBr saturated solution, 25.1° C., humidity 84%): 0.21 % w/w
- initial water content ([8]; before humidity test): 0.08%
- conversion to hydrated form on storage [9]: not converted into any hydrated from
Structure (SMILES): Nc1cccc2c1CN(C1CCC(=O)NC1=O)C2=O (centres unmarked) [Form-I, 3-(4-amino-1-oxo-1,3-dihydro-isoindole-2-yl)-piperidine-2,6-dione]
- conversion to hydrated polymorphic form ([6]; 40° C./75% RH and 30° C./65% RH, up to 6 months): not converted in any of the hydrated polymorphic form

Structure (SMILES): Nc1cccc2c1CN(C1CCC(=O)NC1=O)C2=O (centres unmarked) [Form-E, 3-(4-amino-1-oxo-1,3-dihydro-isoindole-2-yl)-piperidine-2,6-dione]
- moisture content [10]: 11.9%

Structure (SMILES): Nc1cccc2c1CN(C1CCC(=O)NC1=O)C2=O (centres unmarked) [Form A, 3-(4-amino-1-oxo-1,3-dihydro-isoindol-2-yl)-piperidine-2,6-Dione]
- hygroscopicity [10]: not hygroscopic

- dissolution rate [3]: 0.250 mg/min/cm^2
- solubility ([7]; HCl buffer, 25° C.): 3280 µg/mL (≈ 12.7 mM)
Structure (SMILES): Nc1cccc2c1CN(C1CCC(=O)NC1=O)C2=O (centres unmarked) [Form-B, 3-(4-amino-1-oxo-1,3-dihydro-isoindole-2-yl)-piperidine-2,6-dione, reference compound]
- moisture content [10]: 3.1%
